Data as given in article PMC12564265, “Navigating the Deep Eutectic Solvent Landscape: Experimental and Machine Learning Solubility Explorations of Syringic, p-Coumaric, and Caffeic Acids” (International Journal of Molecular Sciences, 2025).
Where “and” joins values, the source holds several entries; their conditions need not be identical. Identical values can stand only once.

Experiment: Shake-flask solubility with spectrophotometric measurement in aqueous DES mixtures
Format: physicochemical
Conditions: for Increase in the solubility compared to the neat DES: 25 °C
Method: In order to determine the solubility of the three studied phenolic acids in deep eutectic solvents, a very well-established shake-flask method coupled with spectrophotometric measurements was utilized. The initial procedure involved the preparation of various DESs, which was conducted by mixing their HBA and HBD counterparts in a glass vessel and heating the composition until the formation of a transparent, uniform liquid. […] For additional measurements, the DESs were mixed with water in varying proportions, creating aqueous DES systems. Saturated solutions of CAF, SYR, and COU were obtained by adding excess amounts of these compounds to test tubes containing either a neat deep eutectic solvent or its aqueous solution. Such samples were placed in the Orbital Shaker Incubator ES-20/60 from Biosan (Riga, Latvia) and heated for 24 h at 25 °C, 30 °C, 35 °C, and 40 °C (±0.1 °C) with simultaneous mixing at 60 rpm. Before measurements, the samples were filtered using a PTFE syringe filter from Qpore (Dallas, TX, USA) with a 0.22 μm pore size. In order to avoid possible precipitation of the saturated solutions at decreased temperatures, the test tubes, syringes, pipette tips, and filters were kept at a temperature identical to that of the samples. The spectrophotometric measurements required the preparation of calibration curves for the three APIs. This involved the preparation of a stock solution of each compound in methanol, which was later successfully diluted, and the obtained solutions of varying concentrations were measured using an A360 spectrophotometer from AOE Instruments (Shanghai, China). The wavelength range was set to 200-500 nm, and the resolution was 1 nm. The analytical wavelengths were determined to be 324 nm for caffeic acid, 273 nm for syringic acid, and 308 nm for p-coumaric acid. The final regression equations, obtained after averaging three distinct sets of measurements, are collected in Table 2 together with determination coefficients and limits of detection (LOD) and quantification (LOQ) for the calibration curves. The measurements of the samples were conducted with the same spectrophotometer and identical settings. Methanol was used for the dilution of the samples so that they could remain within the linearity range of the method. Complete spectra of the samples were recorded, but for the solubility determination, the absorbance values at a specific analytical wavelength were considered. These values were combined with the corresponding regression equations of the calibration curves and served for the calculation of the concentration of the three phenolic acids in the studied samples. The densities of such samples were also measured, and for this task 1 mL of each sample was weighed to a precision of 0.1 mg using an AS 110 R2.PLUS analytical balance from […] (Radom, Poland). The obtained densities enabled the calculation of mole fractions of CAF, SYR, and COU dissolved in the studied DESs. For each considered system, three distinct measurements were conducted, and the results were averaged.

Compound: O=C(O)C=Cc1ccc(O)c(O)c1 [caffeic acid, 3,4-dihydroxycinnamic acid]
- Mole fraction solubility (Bet – TEG 1:2 + water, x*DES 0.9, 30°C): 0.0941±0.0005 mole fraction
- Mole fraction solubility (Bet – TEG 1:2 + water, x*DES 0.9, 35°C): 0.1123±0.0012 mole fraction
- Mole fraction solubility (Bet – TEG 1:2 + water, x*DES 0.9, 40°C): 0.1364±0.0011 mole fraction
- Mole fraction solubility (Bet – TEG 1:2, x*DES 1.0 (neat DES), 25°C): 0.0755±0.0010 mole fraction
- Mole fraction solubility (Bet – TEG 1:2, x*DES 1.0 (neat DES), 30°C): 0.0844±0.0011 mole fraction
- Mole fraction solubility (Bet – TEG 1:2, x*DES 1.0 (neat DES), 35°C): 0.0989±0.0012 mole fraction
- Mole fraction solubility (Bet – TEG 1:2, x*DES 1.0 (neat DES), 40°C): 0.1215±0.0012 mole fraction
- Increase in the solubility compared to the neat DES (Bet-TEG 1:2, x*DES = 0.9 (xwater = 0.1)): 9%
- Mole fraction solubility (ChCl – TEG 1:2 + water, x*DES 0.1, 25°C): 0.0098±0.0001 mole fraction
- Mole fraction solubility (ChCl – TEG 1:2 + water, x*DES 0.1, 30°C): 0.0125±0.0001 mole fraction
- Mole fraction solubility (ChCl – TEG 1:2 + water, x*DES 0.1, 35°C): 0.0162±0.0001 mole fraction
- Mole fraction solubility (ChCl – TEG 1:2 + water, x*DES 0.1, 40°C): 0.0211±0.0001 mole fraction
- Mole fraction solubility (ChCl – TEG 1:2 + water, x*DES 0.2, 25°C): 0.0184±0.0002 mole fraction
- Mole fraction solubility (ChCl – TEG 1:2 + water, x*DES 0.2, 30°C): 0.0233±0.0002 mole fraction
- Mole fraction solubility (ChCl – TEG 1:2 + water, x*DES 0.2, 35°C): 0.0321±0.0001 mole fraction
- Mole fraction solubility (ChCl – TEG 1:2 + water, x*DES 0.2, 40°C): 0.0432±0.0002 mole fraction
- Mole fraction solubility (ChCl – TEG 1:2 + water, x*DES 0.3, 25°C): 0.0292±0.0002 mole fraction
- Mole fraction solubility (ChCl – TEG 1:2 + water, x*DES 0.3, 30°C): 0.0366±0.0003 mole fraction
- Mole fraction solubility (ChCl – TEG 1:2 + water, x*DES 0.3, 35°C): 0.0492±0.0002 mole fraction
- Mole fraction solubility (ChCl – TEG 1:2 + water, x*DES 0.3, 40°C): 0.0665±0.0004 mole fraction
- Mole fraction solubility (ChCl – TEG 1:2 + water, x*DES 0.4, 25°C): 0.0381±0.0003 mole fraction
- Mole fraction solubility (ChCl – TEG 1:2 + water, x*DES 0.4, 30°C): 0.0481±0.0003 mole fraction
- Mole fraction solubility (ChCl – TEG 1:2 + water, x*DES 0.4, 35°C): 0.0652±0.0003 mole fraction
- Mole fraction solubility (ChCl – TEG 1:2 + water, x*DES 0.4, 40°C): 0.0893±0.0002 mole fraction
- Mole fraction solubility (ChCl – TEG 1:2 + water, x*DES 0.5, 25°C): 0.0491±0.0004 mole fraction
- Mole fraction solubility (ChCl – TEG 1:2 + water, x*DES 0.5, 30°C): 0.0612±0.0003 mole fraction
- Mole fraction solubility (ChCl – TEG 1:2 + water, x*DES 0.5, 35°C): 0.0841±0.0005 mole fraction
- Mole fraction solubility (ChCl – TEG 1:2 + water, x*DES 0.5, 40°C): 0.1208±0.0009 mole fraction
- Mole fraction solubility (ChCl – TEG 1:2 + water, x*DES 0.6, 25°C): 0.0593±0.0005 mole fraction
- Mole fraction solubility (ChCl – TEG 1:2 + water, x*DES 0.6, 30°C): 0.0754±0.0003 mole fraction
- Mole fraction solubility (ChCl – TEG 1:2 + water, x*DES 0.6, 35°C): 0.1040±0.0006 mole fraction
- Mole fraction solubility (ChCl – TEG 1:2 + water, x*DES 0.6, 40°C): 0.1464±0.0014 mole fraction
- Mole fraction solubility (ChCl – TEG 1:2 + water, x*DES 0.7, 25°C): 0.0715±0.0007 mole fraction
- Mole fraction solubility (ChCl – TEG 1:2 + water, x*DES 0.7, 30°C): 0.0924±0.0007 mole fraction
- Mole fraction solubility (ChCl – TEG 1:2 + water, x*DES 0.7, 35°C): 0.1254±0.0014 mole fraction
- Mole fraction solubility (ChCl – TEG 1:2 + water, x*DES 0.7, 40°C): 0.1718±0.0012 mole fraction
- Mole fraction solubility (ChCl – TEG 1:2 + water, x*DES 0.8, 25°C): 0.0827±0.0009 mole fraction
- Mole fraction solubility (ChCl – TEG 1:2 + water, x*DES 0.8, 30°C): 0.1080±0.0013 mole fraction
- Mole fraction solubility (ChCl – TEG 1:2 + water, x*DES 0.8, 35°C): 0.1418±0.0015 mole fraction
- Mole fraction solubility (ChCl – TEG 1:2 + water, x*DES 0.8, 40°C): 0.1910±0.0018 mole fraction
- Mole fraction solubility (ChCl – TEG 1:2 + water, x*DES 0.9, 25°C): 0.0851 mole fraction and 0.0851±0.0005 mole fraction
- Mole fraction solubility (ChCl – TEG 1:2 + water, x*DES 0.9, 30°C): 0.1116±0.0017 mole fraction
- Mole fraction solubility (ChCl – TEG 1:2 + water, x*DES 0.9, 35°C): 0.1479±0.0013 mole fraction
- Mole fraction solubility (ChCl – TEG 1:2 + water, x*DES 0.9, 40°C): 0.1964±0.0019 mole fraction
- Mole fraction solubility (ChCl – TEG 1:2, x*DES 1.0 (neat DES), 25°C): 0.0835±0.0010 mole fraction
- Mole fraction solubility (ChCl – TEG 1:2, x*DES 1.0 (neat DES), 30°C): 0.1032±0.0014 mole fraction
- Mole fraction solubility (ChCl – TEG 1:2, x*DES 1.0 (neat DES), 35°C): 0.1364±0.0007 mole fraction
- Mole fraction solubility (ChCl – TEG 1:2, x*DES 1.0 (neat DES), 40°C): 0.1928±0.0017 mole fraction
- Increase in the solubility compared to the neat DES (ChCl-TEG 1:2, x*DES = 0.9 (xwater = 0.1)): 2%
- Solubility increase between 25 °C and 40 °C (neat DES (x*DES = 1.0) involving betaine (Bet-TEG 1:2)): 161%
- Solubility increase between 25 °C and 40 °C (neat DES (x*DES = 1.0) with choline chloride (ChCl-TEG 1:2)): 231%
